Experimental data as given in PubChem BioAssay (NCI).
“And” between values parts separate entries of the source, which are not always exact repeats. Equal values may be shown once.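 Briefly, cells in 96-well plates were exposed to five compound concentrations for 48 h, and endpoints were estimated by linear interpolation. Here, GI50 denotes the concentration required for 50% inhibition of growth. TGI: total growth inhibition.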

Assays:
Test in all cases: NCI tumour cell line growth inhibition, 48 h
M14 melanoma = tested on: M14 melanoma
SF-539 CNS = tested on: SF-539 CNS
SNB-75 CNS = tested on: SNB-75 CNS
ACHN renal = tested on: ACHN renal
CAKI-1 renal = tested on: CAKI-1 renal
A549 NSCLC = tested on: A549 NSCLC
HOP-92 NSCLC = tested on: HOP-92 NSCLC
NCI-H226 lung = tested on: NCI-H226 lung
SW-620 colon = tested on: SW-620 colon
COLO 205 colon = tested on: COLO 205 colon

OCc1ncc(-c2ccccc2)s1
GI50 (M14 melanoma): > 100 µM | TGI (M14 melanoma): > 100 µM | GI50 (SF-539 CNS): > 100 µM | TGI (SF-539 CNS): > 100 µM | GI50 (SNB-75 CNS): > 100 µM | TGI (SNB-75 CNS): > 100 µM | GI50 (ACHN renal): > 100 µM | TGI (ACHN renal): > 100 µM | GI50 (CAKI-1 renal): > 100 µM | TGI (CAKI-1 renal): > 100 µM | GI50 (A549 NSCLC): > 100 µM | TGI (A549 NSCLC): > 100 µM | GI50 (HOP-92 NSCLC): 76.5 µM | TGI (HOP-92 NSCLC): > 100 µM | GI50 (NCI-H226 lung): > 100 µM | TGI (NCI-H226 lung): > 100 µM | GI50 (SW-620 colon): > 100 µM | TGI (SW-620 colon): > 100 µM | GI50 (COLO 205 colon): > 100 µM | TGI (COLO 205 colon): > 100 µM

CC(=O)N1N=C(c2ccc(Nc3nc(Nc4ccc(F)cc4)nc(Nc4ccc(Cl)cc4)n3)cc2)CC1c1ccc(N(C)C)cc1 (stereo not drawn)
GI50 (M14 melanoma): 3.05 µM | TGI (M14 melanoma): 10.8 µM | GI50 (SF-539 CNS): 15.8 µM | TGI (SF-539 CNS): > 63.9 µM | GI50 (SNB-75 CNS): 3.02 µM | TGI (SNB-75 CNS): 20.3 µM | GI50 (ACHN renal): 4.03 µM | TGI (ACHN renal): > 58.4 µM | GI50 (CAKI-1 renal): 9.28 µM | TGI (CAKI-1 renal): > 54.3 µM | GI50 (A549 NSCLC): 4.27 µM | TGI (A549 NSCLC): 43 µM | GI50 (HOP-92 NSCLC): 2.87 µM | TGI (HOP-92 NSCLC): 19.1 µM | GI50 (NCI-H226 lung): 4.91 µM | TGI (NCI-H226 lung): 28 µM | GI50 (SW-620 colon): 13.3 µM | TGI (SW-620 colon): 56.8 µM | GI50 (COLO 205 colon): 1.81 µM | TGI (COLO 205 colon): 5.9 µM

CC(=O)OC1CC2(O)C(CCC3(C)C(c4ccc(=O)oc4)CCC32O)C2(C)CCC(OC3OC(CO)C(O)C(O)C3O)C=C12 (stereo not drawn)
GI50 (M14 melanoma): 0.0356 µM | TGI (M14 melanoma): 0.129 µM | GI50 (SF-539 CNS): 0.0144 µM | TGI (SF-539 CNS): 0.0331 µM | GI50 (SNB-75 CNS): 0.0333 µM | TGI (SNB-75 CNS): 0.192 µM | GI50 (ACHN renal): < 0.01 µM | TGI (ACHN renal): 0.036 µM | GI50 (CAKI-1 renal): 0.0306 µM | TGI (CAKI-1 renal): 0.131 µM | GI50 (A549 NSCLC): < 0.01 µM | TGI (A549 NSCLC): 0.0278 µM | GI50 (HOP-92 NSCLC): 0.0494 µM | TGI (HOP-92 NSCLC): 0.318 µM | GI50 (NCI-H226 lung): 0.051 µM | TGI (NCI-H226 lung): 0.176 µM | GI50 (SW-620 colon): 0.0275 µM | TGI (SW-620 colon): 0.144 µM | GI50 (COLO 205 colon): 0.0554 µM | TGI (COLO 205 colon): 0.274 µM

Clc1ccc(N/N=C(\c2ccccc2)c2ccccn2)nc1
GI50 (M14 melanoma): 0.0879 µM | TGI (M14 melanoma): 14.4 µM and 16.1 µM | GI50 (SF-539 CNS): 0.297 µM | TGI (SF-539 CNS): 5.57 µM and 9.47 µM | GI50 (SNB-75 CNS): 0.614 µM | GI50 (ACHN renal): 0.0619 µM | TGI (ACHN renal): > 36.8 µM and 12.5 µM | GI50 (CAKI-1 renal): 0.172 µM | TGI (CAKI-1 renal): 2.3 µM and 16.7 µM | TGI (A549 NSCLC): > 100 µM and 15.9 µM | GI50 (HOP-92 NSCLC): 0.445 µM | TGI (HOP-92 NSCLC): > 66.2 µM and 10.2 µM | GI50 (NCI-H226 lung): 0.197 µM | TGI (NCI-H226 lung): 5.16 µM and 0.736 µM | GI50 (SW-620 colon): 0.0958 µM | TGI (SW-620 colon): > 65.3 µM | GI50 (COLO 205 colon): 0.0308 µM | TGI (COLO 205 colon): 18.1 µM

O=C1Nc2ccc(CN3CCOC3=O)cc2/C1=C/c1cc(CN2CCOCC2)c[nH]1
GI50 (M14 melanoma): 34 µM | TGI (M14 melanoma): > 93.9 µM | GI50 (SF-539 CNS): 53.9 µM | TGI (SF-539 CNS): > 100 µM | GI50 (SNB-75 CNS): 52.8 µM | TGI (SNB-75 CNS): > 100 µM | GI50 (ACHN renal): 56 µM | TGI (ACHN renal): > 100 µM | GI50 (CAKI-1 renal): 26.3 µM | TGI (CAKI-1 renal): > 100 µM | GI50 (A549 NSCLC): 49.7 µM | TGI (A549 NSCLC): > 100 µM | GI50 (HOP-92 NSCLC): 32 µM | TGI (HOP-92 NSCLC): > 92.3 µM | GI50 (NCI-H226 lung): 28.1 µM | TGI (NCI-H226 lung): > 100 µM | GI50 (SW-620 colon): 37.9 µM | TGI (SW-620 colon): > 100 µM | GI50 (COLO 205 colon): 38.6 µM | TGI (COLO 205 colon): > 100 µM

O=C(c1ccccc1)c1ccc(O)c2ncccc12
GI50 (M14 melanoma): 2.7 µM | TGI (M14 melanoma): 19.5 µM | GI50 (SF-539 CNS): 4.66 µM | TGI (SF-539 CNS): 21.3 µM | GI50 (SNB-75 CNS): 15 µM | TGI (SNB-75 CNS): 90.7 µM | GI50 (ACHN renal): 3.46 µM | TGI (ACHN renal): 15.7 µM | GI50 (CAKI-1 renal): 1.13 µM | TGI (CAKI-1 renal): 6.3 µM | GI50 (A549 NSCLC): 9.02 µM | TGI (A549 NSCLC): > 100 µM | GI50 (HOP-92 NSCLC): 2.89 µM | TGI (HOP-92 NSCLC): 16.5 µM | GI50 (NCI-H226 lung): 9.45 µM | TGI (NCI-H226 lung): 41.8 µM | GI50 (SW-620 colon): 4.07 µM | TGI (SW-620 colon): 17.9 µM | GI50 (COLO 205 colon): 23.9 µM | TGI (COLO 205 colon): 95.7 µM

N#CSCC1CC(O)(c2ccccc2)CC(c2ccc(Cl)cc2)O1 (stereo not drawn)
GI50 (M14 melanoma): 1.75 µM | TGI (M14 melanoma): 3.28 µM | GI50 (SF-539 CNS): 1.54 µM | TGI (SF-539 CNS): 3.32 µM | GI50 (SNB-75 CNS): 3.58 µM | TGI (SNB-75 CNS): 13.3 µM | GI50 (ACHN renal): 2.78 µM | TGI (ACHN renal): 8.25 µM | GI50 (CAKI-1 renal): 3.2 µM | TGI (CAKI-1 renal): 9.51 µM | GI50 (A549 NSCLC): 3.74 µM | TGI (A549 NSCLC): 17.3 µM | GI50 (HOP-92 NSCLC): 2.21 µM | TGI (HOP-92 NSCLC): 5.58 µM | GI50 (NCI-H226 lung): 5.79 µM | TGI (NCI-H226 lung): 35.6 µM | GI50 (SW-620 colon): 1.83 µM | TGI (SW-620 colon): 3.35 µM | GI50 (COLO 205 colon): 1.91 µM | TGI (COLO 205 colon): 3.92 µM

Cc1ccc(N(/C=C/C(=O)C(F)(F)F)CC(=O)c2ccc(Cl)c(Cl)c2)cc1
GI50 (M14 melanoma): 4.79 µM | TGI (M14 melanoma): 18.6 µM | GI50 (SF-539 CNS): 2.77 µM | TGI (SF-539 CNS): 17 µM | GI50 (SNB-75 CNS): 1.67 µM | TGI (SNB-75 CNS): 16.4 µM | GI50 (ACHN renal): 12.2 µM | TGI (ACHN renal): 24.6 µM | GI50 (CAKI-1 renal): 12.4 µM | TGI (CAKI-1 renal): 24.9 µM | GI50 (A549 NSCLC): 9.37 µM | TGI (A549 NSCLC): 21.3 µM | GI50 (HOP-92 NSCLC): 8.77 µM | TGI (HOP-92 NSCLC): 21.1 µM | GI50 (NCI-H226 lung): 14.9 µM | TGI (NCI-H226 lung): 28.7 µM | GI50 (SW-620 colon): 2.88 µM | TGI (SW-620 colon): 15.2 µM | GI50 (COLO 205 colon): 10 µM | TGI (COLO 205 colon): 21.6 µM

CCOC(=O)C1=C(c2ccccc2)NC(c2ccccc2)=C(C(=O)OCC)c2c1c(=O)cc[nH]c2=O
TGI (M14 melanoma): > 100 µM | TGI (SF-539 CNS): > 100 µM | TGI (SNB-75 CNS): > 100 µM | TGI (ACHN renal): > 100 µM | TGI (CAKI-1 renal): > 100 µM | TGI (A549 NSCLC): > 100 µM | TGI (HOP-92 NSCLC): > 100 µM | TGI (NCI-H226 lung): > 100 µM | TGI (SW-620 colon): > 100 µM | TGI (COLO 205 colon): > 100 µM

CN(N=O)C(=O)Nc1ccc(C(=O)O)cc1
TGI (M14 melanoma): > 100 µM | TGI (SF-539 CNS): > 100 µM | TGI (SNB-75 CNS): > 100 µM | TGI (ACHN renal): > 100 µM | TGI (CAKI-1 renal): > 100 µM | TGI (A549 NSCLC): > 100 µM | TGI (HOP-92 NSCLC): > 100 µM | TGI (NCI-H226 lung): > 100 µM | TGI (SW-620 colon): > 100 µM | TGI (COLO 205 colon): > 100 µM

C/C(=C1/N=C(c2ccccc2)OC1=O)c1ccccc1
TGI (M14 melanoma): > 100 µM | TGI (SF-539 CNS): > 100 µM | TGI (SNB-75 CNS): > 100 µM | TGI (ACHN renal): > 100 µM | TGI (CAKI-1 renal): > 100 µM | TGI (A549 NSCLC): > 100 µM | TGI (HOP-92 NSCLC): > 100 µM | TGI (NCI-H226 lung): > 100 µM | TGI (SW-620 colon): > 100 µM | TGI (COLO 205 colon): > 100 µM
